Assay results published in publication PMC6030159 (Scientific Reports, 2018).
“Also recorded” adds a separate entry of the source.

Experiments:
[1] = tested on: SK-N-DZ MYCN-amplified neuroblastoma xenograft tumors; experiment: SK-N-DZ neuroblastoma xenograft tumor model; type: in vivo, mouse; conditions: 20 mg/kg i.p. daily, 1–2 weeks, vs vehicle
Protocol: The last dose was administered 3 hrs before termination. […]
Immunohistochemistry. Apoptosis was visualized at the single-cell level on tumor cryosections using the TUNEL method using the In Situ Cell Death Detection Fluorescein-Roche kit and analyzed by fluorescence microscopy. Briefly, tumor cryosections were fixed in 4% paraformaldyde (PFA) and the assay was performed following the instructions from the manufacturer. Negative controls were run using the reagent without the TdT enzyme. Samples were mounted using Vectashield mounting medium (Vector) and DAPI was used as nuclear counterstaining. Cell proliferation and microvascular density (MVD) were evaluated through Ki67 and CD31staining, respectively, on tumor cryosections and detected by immunofluoresence. Visualization and image acquisition was done in a Zeiss microscope, and for panoramic views by a Vectra imaging system. For quantification, areas with positive TUNEL and Ki67 staining were measured using Image J software. For the analysis of MVD, the number of vessel structures per microscopic field was calculated.

YFP = experiment: SPR binding to YFP; conditions: data not shown
BCL-XL = tested on: T1, BCL-XL; experiment: MST binding to BCL-XL; conditions: 3 µM MYCMI-6, BCL-XL titrated up to 10 μM
T1 construct: purchased Abcam
Protocol: MST was carried out on a Monolith NT.115 with blue/green filters, kindly provided by Luca Jovine, Karolinska Institutet Huddinge, according to manufacturer's protocol (NanoTemper). […] Titration of molecules was carried out in 16 PCR tubes into which a fixed concentration of fluorescent molecule was added. The mixture was applied to capillaries (standard treated, NanoTemper), and scanned in the Monolith NT.115 to measure initial fluorescence of molecule. MST was induced and fluorescence was measured during 40 seconds. Double measurements were carried out (MST power of 20% and 40%, or 40% and 60%) for each sample. Delta fluorescence or relative fluorescence of fluorescent molecule normalized to control vehicle was plotted against titrated molecule concentration. The protein labeling kit GREEN-NHS (NanoTemper) was used to label primary amines of proteins according to manufacture's protocol. page 5: Supplementary Figure Legends Supplemental Figure S1. Schematic presentations of MYC and MAX protein constructs. […] The cells were reseeded and treated with vehicle or 25 μM of each compound, after which fluorescence was measured 24 hours post-treatment and the YFP/CFP ratio calculated and normalized to DMSO-treated cells. […] (12.5 μM) and analyzed as described in C). […]

[2] = tested on: MYCN-non-amplified neuroblastoma cells (SK-N-F1, SK-N-AS, SK-N-RA); experiment: Resazurin growth assay, MYCN-non-amplified neuroblastoma cell lines; type: cell-based
Description: HEK293A, MCF7, MDA-MB231, SK-N-F1, SK-N-RA, SK-N-AS, COS-7, HeLa, BJ cells, and Rat1 fibroblasts TGR-1 (wt), HO15.19 (MYC knockout) and HOmyc3 (MYC reconstituted HO15.19) were maintained in DMEM. The neuroblastoma cell lines Kelly, IMR-32 and SK-N-DZ, and the Burkitt’s lymphoma cell lines Mutu, Daudi and ST486 were kept in RPMI. SK-N-BE(2) cells were maintained in a 1:1 mixture of EMEM and F12 media, supplemented with 1% non-essential amino acid solution (NEAA) and 0.5% Glutamine. U2OS-MYC-ER cell lines were cultured in phenol-red free DMEM and treated with 100 nM 4-hydroxytamoxifen (HOT) (Sigma-Aldrich) to activate MYC-ER. IMR-90 was maintained in MEM. […]
Cell proliferation assays. Cell growth and viability was estimated in triplicates with WST-1 (Roche) or Resazurin sodium salt (Sigma-Aldrich) assays in medium at 37°C and 5% CO 2 for 2 hours after which absorbance or fluorescence, respectively, was measured with an Omega Fluostar (BMG Labtech) in a 96 well plate format. […] Images were taken in the green (FITC) and blue (DAPI) channels using a fluorescence microscope (ImageXpress Micro, Molecular Devices). […] After 16 days, the colonies were stained with 100 µg/ml MTT (Sigma) overnight and colonies were counted.
Immunohistochemistry. […] For quantification, areas with positive TUNEL and Ki67 staining were measured using Image J software. […]

CCOc1ccc2nc3cc(/N=N/c4ccc(N)nc4N)ccc3c(N)c2c1 [MYCMI-6]
apoptotic areas in tumors (TUNEL) [1]: dramatic increase | microvascular density (CD31) [1]: significantly reduced | non-proliferative areas (Ki67) [1]: significant increase | tumor histology (H&E) [1]: signs of necrosis and hemorrhage | binding to YFP (SPR) (YFP): negligible | binding to BCL-XL (MST) (BCL-XL): did not bind; also recorded: did not observe any binding | GI50 ([2]; Homo sapiens, SK-N-AS, 48 hours, resazurin): ≥ 20 µM | response of SK-N-F1 cell line ([2]; SK-N-F1, 48 hours): essentially did not respond at all
